From patent publication US20260159512A1, “BCAT2 INHIBITORS” (AGIOS PHARMACEUTICALS, INC., priority 2021, published 2026)
Where “and” joins values, the source holds several entries; their conditions need not be identical. Equal values may be shown once.

Key:
Conditions in all cases: average where tested multiple times
BCAT2 [1] = biological target: T1, BCAT2 (Homo sapiens, UniProt O15382); assay: BCAT2 in vitro enzyme inhibition assay (resazurin/diaphorase-coupled fluorescence); format: biochemical
T1 sequence (O15382 28-392): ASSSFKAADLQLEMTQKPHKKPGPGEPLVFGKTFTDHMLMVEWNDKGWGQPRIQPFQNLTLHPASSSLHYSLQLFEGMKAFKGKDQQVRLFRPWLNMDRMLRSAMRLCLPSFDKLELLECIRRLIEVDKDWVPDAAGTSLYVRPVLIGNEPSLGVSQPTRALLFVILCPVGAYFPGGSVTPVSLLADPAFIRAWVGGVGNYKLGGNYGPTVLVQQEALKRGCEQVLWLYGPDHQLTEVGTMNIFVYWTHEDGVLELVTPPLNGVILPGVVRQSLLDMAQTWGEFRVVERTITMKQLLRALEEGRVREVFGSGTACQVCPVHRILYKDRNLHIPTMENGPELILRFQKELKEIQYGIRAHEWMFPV
Method in brief: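 Coupled fluorescence readout: glutamate formed from L-leucine/α-ketoglutarate transamination drives GDH/NAD/diaphorase reduction of resazurin (Ex 540/Em 590). Human BCAT2 was first exposed 1 h at room temperature to compound, top final 100 μM in 3-fold, 10-point series; substrate reaction ran 1 h before SDS quench, in technical duplicate with DMSO max and enzyme-free min controls.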

hBCAT1 = biological target: T2, hBCAT1 (Homo sapiens, UniProt P54687); assay: BCAT1 in vitro enzyme inhibition assay (resazurin/diaphorase-coupled fluorescence); format: biochemical
T2 sequence (P54687 1-386): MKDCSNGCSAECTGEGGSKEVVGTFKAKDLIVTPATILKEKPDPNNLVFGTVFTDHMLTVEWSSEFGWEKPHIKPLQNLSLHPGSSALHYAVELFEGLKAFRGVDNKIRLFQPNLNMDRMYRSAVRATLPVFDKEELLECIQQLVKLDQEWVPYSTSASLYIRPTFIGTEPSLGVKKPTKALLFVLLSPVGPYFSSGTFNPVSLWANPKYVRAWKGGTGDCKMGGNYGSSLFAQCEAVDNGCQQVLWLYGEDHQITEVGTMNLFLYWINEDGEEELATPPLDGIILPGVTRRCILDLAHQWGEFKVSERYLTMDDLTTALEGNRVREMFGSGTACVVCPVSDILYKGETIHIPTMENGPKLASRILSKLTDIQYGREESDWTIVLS
Method in brief: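 Ten-point, 3-fold compound series (top final 100 μM, delivered 1:50 from 50× DMSO stocks) tested against hBCAT1. Inhibition detected via diaphorase-coupled resazurin fluorescence, duplicate wells, with values from repeated runs averaged.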

BCAT2 [2] = biological target: T1, BCAT2; assay: BCAT2 in vitro cell inhibition using engineered A549 cells (KMV cell assay, 13C6-KMV by LC-MS/MS); format: cell-based; set-up: The result was an engineered A549 cell line that expressed endogenous BCAT2; endogenous in cells; host or cells: A549 cells with MUT and BCAT1 knocked out by CRISPR/CAS9; key to BCAT2 Cell Inhibition: A: less than or equal to 0.100 μM; B: greater than 0.100 and less than or equal to 0.500 μM; C: greater than 0.500 and less than or equal to 1.000 μM; d: greater than 1.000 μM; E: no fit

Structure (SMILES) | IC50 (BCAT2 [1]) | IC50 (hBCAT1) | IC50 (BCAT2 [2]) | BCAT2 Cell Inhibition (BCAT2 [2])
CC(=O)N1CC(NC(=O)c2ccc(Br)s2)CC(n2c(-c3ccccc3F)nc3cnc(-c4ncco4)cc32)C1 (stereo not drawn) [Example 118, N-(1-acetyl-5-(2-(2-fluorophenyl)-6-(oxazol-2-yl)-1H-imidazo[4,5-c]pyridin-1-yl)piperidin-3-yl)-5-bromothiophene-2-carboxamide] | ≤ 100 nM | < 500 nM | ≤ 100 nM | 
CC(=O)N1CC(NC(=O)c2ncc(C(F)F)s2)CC(n2c(-c3ncccc3F)nc3cnc(-n4nccn4)cc32)C1 (stereo not drawn) [Example 119, N-(1-acetyl-5-(2-(3-fluoropyridin-2-yl)-6-(2H-1,2,3-triazol-2-yl)-1H-imidazo[4,5-c]pyridin-1-yl)piperidin-3-yl)-5-(difluoromethyl)thiazole-2-carboxamide] | ≤ 100 nM | < 500 nM | 100 to 500 nM | 
CC(=O)N1CC(NC(=O)c2ncc(C(F)F)s2)CC(n2c(-c3ncccc3F)nc3cnc(-n4ccnn4)cc32)C1 (stereo not drawn) [Example 120, N-(1-acetyl-5-(2-(3-fluoropyridin-2-yl)-6-(1H-1,2,3-triazol-1-yl)-1H-imidazo[4,5-c]pyridin-1-yl)piperidin-3-yl)-5-(difluoromethyl)thiazole-2-carboxamide] | ≤ 100 nM | 1000 to 5000 nM and > 5000 nM | > 1000 nM | 
CC(=O)N1CC(NC(=O)c2ncc(C(F)F)s2)CC(n2c(-c3ccccn3)nc3cnc(-n4nccn4)cc32)C1 (stereo not drawn) [Example 121, N-(1-acetyl-5-(2-(pyridin-2-yl)-6-(2H-1,2,3-triazol-2-yl)-1H-imidazo[4,5-c]pyridin-1-yl)piperidin-3-yl)-5-(difluoromethyl)thiazole-2-carboxamide] | ≤ 100 nM | 500 to 1000 nM | 100 to 500 nM | 
CC(=O)N1CC(NC(=O)c2ncc(C(F)F)s2)CC(n2c(-c3ccccn3)nc3cnc(-n4ccnn4)cc32)C1 (stereo not drawn) [Example 122, N-(1-acetyl-5-(2-(pyridin-2-yl)-6-(1H-1,2,3-triazol-1-yl)-1H-imidazo[4,5-c]pyridin-1-yl)piperidin-3-yl)-5-(difluoromethyl)thiazole-2-carboxamide] | 100 to 500 nM | > 5000 nM |  | E
CC(=O)N1CC(NC(=O)c2ncc(C(F)F)s2)CC(n2c(-c3ccccc3F)nc3cnc(-n4nccn4)cc32)C1 (stereo not drawn) [Example 123, N-(1-acetyl-5-(2-(2-fluorophenyl)-6-(2H-1,2,3-triazol-2-yl)-1H-imidazo[4,5-c]pyridin-1-yl)piperidin-3-yl)-5-(difluoromethyl)thiazole-2-carboxamide] | ≤ 100 nM | < 500 nM | ≤ 100 nM | 
CC(=O)N1CC(NC(=O)c2ncc(C(F)F)s2)CC(n2c(-c3ccccc3F)nc3cnc(-n4ccnn4)cc32)C1 (stereo not drawn) [Example 124, N-(1-acetyl-5-(2-(2-fluorophenyl)-6-(1H-1,2,3-triazol-1-yl)-1H-imidazo[4,5-c]pyridin-1-yl)piperidin-3-yl)-5-(difluoromethyl)thiazole-2-carboxamide] | ≤ 100 nM | 1000 to 5000 nM | 100 to 500 nM | 
O=C(NC1CNCC(n2c(-c3ncccc3F)nc3cnc(-n4nccn4)cc32)C1)c1ncc(C(F)F)s1 (stereo not drawn) [Example 125, 5-(difluoromethyl)-N-(5-(2-(3-fluoropyridin-2-yl)-6-(2H-1,2,3-triazol-2-yl)-1H-imidazo[4,5-c]pyridin-1-yl)piperidin-3-yl)thiazole-2-carboxamide] | ≤ 100 nM | 1000 to 5000 nM | 100 to 500 nM | 
CC(=O)N1CC(NC(=O)c2ncc(C(F)F)s2)CC(n2c(-c3ccccc3F)nc3cnc(-c4ncco4)cc32)C1 (stereo not drawn) [Example 126, N-(1-acetyl-5-(2-(2-fluorophenyl)-6-(oxazol-2-yl)-1H-imidazo[4,5-c]pyridin-1-yl)piperidin-3-yl)-5-(difluoromethyl)thiazole-2-carboxamide] | ≤ 100 nM | < 500 nM | ≤ 100 nM | 
CC(=O)N1C[C@@H](NC(=O)c2ncc(C(F)F)s2)C[C@@H](n2c(-c3ccccc3F)nc3cnc(-c4ncco4)cc32)C1 [Example 127, N-((3S,5R)-1-acetyl-5-(2-(2-fluorophenyl)-6-(oxazol-2-yl)-1H-imidazo[4,5-c]pyridin-1-yl)piperidin-3-yl)-5-(difluoromethyl)thiazole-2-carboxamide] | 100 to 500 nM | 1000 to 5000 nM | > 1000 nM | 
CC(=O)N1C[C@H](NC(=O)c2ncc(C(F)F)s2)C[C@H](n2c(-c3ccccc3F)nc3cnc(-c4ncco4)cc32)C1 [Example 128, N-((3R,5S)-1-acetyl-5-(2-(2-fluorophenyl)-6-(oxazol-2-yl)-1H-imidazo[4,5-c]pyridin-1-yl)piperidin-3-yl)-5-(difluoromethyl)thiazole-2-carboxamide] | ≤ 100 nM | < 500 nM | ≤ 100 nM | 
CC(O)CN1CC(NC(=O)c2ncc(C(F)F)s2)CC(n2c(-c3ncccc3F)nc3cnc(-n4nccn4)cc32)C1 (stereo not drawn) [Example 129, 5-(difluoromethyl)-N-(5-(2-(3-fluoropyridin-2-yl)-6-(2H-1,2,3-triazol-2-yl)-1H-imidazo[4,5-c]pyridin-1-yl)-1-(2-hydroxypropyl)piperidin-3-yl)thiazole-2-carboxamide] | ≤ 100 nM | > 5000 nM | > 1000 nM | 
Cc1coc(-c2cc3c(cn2)nc(-c2ccccc2F)n3C2CC(NC(=O)c3ncc(Cl)s3)CN(C)C2)n1 (stereo not drawn) [Example 130, 5-chloro-N-(5-(2-(2-fluorophenyl)-6-(4-methyloxazol-2-yl)-1H-imidazo[4,5-c]pyridin-1-yl)-1-methylpiperidin-3-yl)thiazole-2-carboxamide] | ≤ 100 nM | 1000 to 5000 nM | 100 to 500 nM | 
CC(=O)N1CC(NC(=O)c2ccc(Cl)s2)CC(n2c(CC(C)C)nc3cnc(-n4nccn4)cc32)C1 (stereo not drawn) [Example 131, N-(1-acetyl-5-(2-isobutyl-6-(2H-1,2,3-triazol-2-yl)-1H-imidazo[4,5-c]pyridin-1-yl)piperidin-3-yl)-5-chlorothiophene-2-carboxamide] | ≤ 100 nM | < 500 nM | 100 to 500 nM | 
CC(=O)N1CC(NC(=O)c2ccc(Cl)s2)CC(n2c(-c3ccccc3F)nc3cnc(-n4nccn4)cc32)C1 (stereo not drawn) [Example 132, N-(1-acetyl-5-(2-(2-fluorophenyl)-6-(2H-1,2,3-triazol-2-yl)-1H-imidazo[4,5-c]pyridin-1-yl)piperidin-3-yl)-5-chlorothiophene-2-carboxamide] | ≤ 100 nM | < 500 nM | ≤ 100 nM | 
O=C(N[C@H]1CCC[C@@H](n2c(-c3ccccc3F)nc3cc(-n4nccn4)ncc32)C1)c1ncc(C(F)F)s1 [Example 148, 5-(difluoromethyl)-N-((1S,3R)-3-(2-(2-fluorophenyl)-6-(2H-1,2,3-triazol-2-yl)-3H-imidazo[4,5-c]pyridin-3-yl)cyclohexyl)thiazole-2-carboxamide] | ≤ 100 nM | > 5000 nM | > 1000 nM | 
O=C(N[C@H]1CCC[C@@H](n2c(-c3ccccc3F)nc3cc(-n4ccnn4)ncc32)C1)c1ncc(C(F)F)s1 [Example 149, 5-(difluoromethyl)-N-((1S,3R)-3-(2-(2-fluorophenyl)-6-(1H-1,2,3-triazol-1-yl)-3H-imidazo[4,5-c]pyridin-3-yl)cyclohexyl)thiazole-2-carboxamide] | ≤ 100 nM | 1000 to 5000 nM | 100 to 500 nM | 
O=C(N[C@H]1CCC[C@@H](n2c(-c3ccccn3)nc3cc(-n4ccnn4)ncc32)C1)c1ccc(Br)s1 [Example 152, 5-bromo-N-((1S,3R)-3-(2-(pyridin-2-yl)-6-(1H-1,2,3-triazol-1-yl)-3H-imidazo[4,5-c]pyridin-3-yl)cyclohexyl)thiophene-2-carboxamide] | ≤ 100 nM | 500 to 1000 nM | ≤ 100 nM | 
